In article PMC3608840 (Journal of biomolecular screening, 2012):

Assays:
[1] = biological target: T1, A2B adenosine receptor (Homo sapiens, UniProt P29275); test: A2B receptor activation by adenosine in calcium mobilization assay; assay type: cell-based; settings: BABPA 5 μM, pCPT-cAMP 100 μM; 1 mM adenosine as ligand
T1 sequence (P29275 1-332): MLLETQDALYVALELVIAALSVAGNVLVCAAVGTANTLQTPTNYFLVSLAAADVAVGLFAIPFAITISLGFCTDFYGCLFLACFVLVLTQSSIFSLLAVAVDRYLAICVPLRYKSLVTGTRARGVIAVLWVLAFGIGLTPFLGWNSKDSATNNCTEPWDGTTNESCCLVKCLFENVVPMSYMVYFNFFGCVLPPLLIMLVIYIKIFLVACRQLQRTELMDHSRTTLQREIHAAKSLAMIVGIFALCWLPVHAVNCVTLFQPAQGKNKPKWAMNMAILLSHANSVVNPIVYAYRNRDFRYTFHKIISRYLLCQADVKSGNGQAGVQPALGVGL

[2] = tested on: PAP; settings: cited from earlier work
[3] = tested on: transmembrane PAP; test: Cell-based calcium mobilization assay of AMP hydrolysis by transmembrane PAP; settings: HEK293 cells expressing hA2B + Gαq-s5 + transmembrane PAP, 1 mM AMP
[4] = biological target: T2, hPAP (Homo sapiens, UniProt P15309); test: Fluorogenic; assay type: biochemical; settings: read-out: IC50 hPAP, fluorogenic assay; positive control, DiFMUP substrate
T2 sequence (P15309 33-386): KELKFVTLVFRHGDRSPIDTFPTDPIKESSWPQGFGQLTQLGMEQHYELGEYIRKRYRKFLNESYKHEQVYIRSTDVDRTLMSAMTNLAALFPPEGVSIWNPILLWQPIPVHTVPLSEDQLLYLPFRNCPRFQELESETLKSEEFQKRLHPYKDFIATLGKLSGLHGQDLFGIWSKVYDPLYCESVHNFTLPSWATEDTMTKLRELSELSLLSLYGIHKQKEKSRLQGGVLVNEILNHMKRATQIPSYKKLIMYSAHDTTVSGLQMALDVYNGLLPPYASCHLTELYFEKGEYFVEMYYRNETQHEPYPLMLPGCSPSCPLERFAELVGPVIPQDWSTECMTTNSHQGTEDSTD

[5] = biological target: T3, mPAP (Mus musculus, UniProt Q8CE08); test: Fluorogenic; assay type: biochemical; settings: read-out: IC50 mPAP, fluorogenic assay; positive control, DiFMUP substrate
T3 sequence (Q8CE08 32-381): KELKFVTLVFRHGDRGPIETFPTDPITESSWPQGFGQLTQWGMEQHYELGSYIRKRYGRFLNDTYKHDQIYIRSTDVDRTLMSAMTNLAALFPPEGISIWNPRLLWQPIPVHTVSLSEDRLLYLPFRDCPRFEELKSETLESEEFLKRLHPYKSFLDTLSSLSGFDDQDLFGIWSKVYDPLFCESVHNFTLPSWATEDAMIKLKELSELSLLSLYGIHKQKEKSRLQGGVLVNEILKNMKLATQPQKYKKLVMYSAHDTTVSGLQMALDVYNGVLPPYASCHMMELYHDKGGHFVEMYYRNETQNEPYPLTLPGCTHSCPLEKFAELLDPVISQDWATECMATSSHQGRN

For `O=P(O)(O)C(NCc1ccccc1)c1ccccc1` (stereo not drawn) [BABPA, α-Benzylaminobenzylphosphonic acid], the “Block of A2B receptor activation by adenosine (in words)” value [1] is given as “did not block”, the “Inhibition of PAP (potency in words)” value [2] is given as “low nanomolar range” and the “Inhibition of hydrolysis of AMP to adenosine by transmembrane PAP (in words)” value [3] is given as “dose-dependently inhibited”. The IC50 [4] was 4.97 nM and the IC50 [5] was 20.6 nM.
